pKi: −log10 of the molar value.

Assay [1] addresses T1, human A2B-receptor (Homo sapiens, UniProt P29275).
T1 construct: purchased Receptor Biology USA via Perkin Elmer Life Sciences, Cologne, Germany; host or cells: HEK cells (membranes)
T1 sequence (P29275 1-332): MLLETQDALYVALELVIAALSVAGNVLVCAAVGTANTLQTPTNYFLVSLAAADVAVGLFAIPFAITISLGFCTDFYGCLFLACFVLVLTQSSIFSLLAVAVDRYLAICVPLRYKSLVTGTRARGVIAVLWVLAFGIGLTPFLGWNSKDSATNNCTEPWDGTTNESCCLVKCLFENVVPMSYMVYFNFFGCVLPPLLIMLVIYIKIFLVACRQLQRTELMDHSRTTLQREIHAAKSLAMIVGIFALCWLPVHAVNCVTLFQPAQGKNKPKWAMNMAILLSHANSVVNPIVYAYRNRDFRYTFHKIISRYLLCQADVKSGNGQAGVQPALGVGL
As to the kind of experiment: Receptor binding assay with [3H]ZM241385 on recombinant A2B-adenosine receptors in HEK cells. The following applies: for pKi: Table 2, [3H]ZM241385, read-out: A2B K1. From the text:
(§1) The data of the biological tests that are cited below results from radioligand-binding assays on A1, A2A, A2B and A3 adenosine receptors (ARs).
(§2) The following selective radioligands are used in the biological tests: • [^3H]CCPA (for A1 ARs) [Klotz et al., Naunyn-Schmiedeberg's Arch. Pharmacol., 340, 679 (1989)] • [^3]MSX-2 (for A2A ARs) [Muiller et al., Eur. J. Pharm. Sci., 10, 259 (2000)] • [^3H]ZM241385 (for A2B ARs_[X.-D. Ji, K. A. Jacobson, Drug Des. Discov., 16, 217 (1999)] • [^3H]PSB-11 (new antagonistic radioligand for human A3 ARs) [M. Dieckmann, M. Thorand, V. Ozola, C. E. Muiller, in Vorbereitung [Preparation] (2001)]. • [^125I]AB-MECA (for rat-A3 ARs) [Olah et al., Mol. Pharmacol., 45, 978 (1994)]. Description of the Assays That are Used for Testing Substances Production of Tissue Preparations Made from Rat Brains
In addition, A28-adenosine receptor membranes are prepared, whereby, for example, finished prepared membranes of HEK cells, which express the human A2B-receptor in high density (about 4 pmol/mg of protein), were available commercially (Receptor Biology USA via Perkin Elmer Life Sciences, Cologne, Germany).
The test substances are dissolved in DMSO to 10 mmol. The final concentration of DMSO in the assay is 2.5% for A1- and A2A-adenosine receptor assays and 1-2% for A2B- and A3-assays. Dilution series of the test substances are produced from the stock solution. Five to eight different test concentrations, which comprise 3 orders of magnitude (e.g., 1 nm to 1000 nm), are used. […]
(§3) The mean value is calculated from three independent experiments. IC50 and K, values are obtained from the Cheng-Prusoff equation, the concentration and the KD value of the radioligand. For calculation, the program GraphPadPrism™, Version 3.0 (GraphPad, San Diego, Calif., USA), was used.

Assay [2] addresses A2A adenosine receptor (Rattus norvegicus, UniProt P30543). As to the kind of experiment: Receptor binding assay with [3H]MSX-2 on A2A-adenosine receptors. The following applies: for pKi: Table 2, [3H]MSX-2, read-out: A2A K1. On the set-up: tissue Pel Freez Company (Rogers, Ark., USA); host or cells: rat brain striatum membranes.
From the text: as §1, §2
The cell decomposing of the cerebral cortex is carried out with a glass-Teflon homogenizer (stages 5-6, 10 seconds) in 0.32 M saccharose solution. The membranes are purified over various centrifuging steps. With centrifuging at 600 g, 4° C., for 10 minutes, a large amount of cell debris is separated via the P1 fraction, and the supernatant (P2 fraction) is further worked up: in the subsequent three centrifuging steps (35,000 g; 4° C.; 60 minutes), a pellet is produced that is resuspended in 50 mmol of TRIS buffer, pH 7.4 with the Ultraturrax (stages 3-4, 3 seconds); the respective supernatant is discarded. The striata are added to cold TRIS buffer, homogenized with the Ultraturrax in stages 3 to 4-(3 seconds) and then centrifuged at 35,000 g, 4° C., for 20 minutes. The supernatant is discarded, and the pellet is resuspended in 50 mmol of TRIS buffer (50 mmol, pH 7.4). The washing process is repeated twice more. The membrane preparations are stored at −80° C. and are held for several months. The cerebral cortex membrane preparation is used for A1-radioligand binding studies, and the striatum is used for A2A-radiologiand binding studies.
The test substances are dissolved in DMSO to 10 mmol. The final concentration of DMSO in the assay is 2.5% for A1- and A2A-adenosine receptor assays and 1-2% for A2B- and A3-assays. Dilution series of the test substances are produced from the stock solution. Five to eight different test concentrations, which comprise 3 orders of magnitude (e.g., 1 nm to 1000 nm), are used.
Receptor Binding Assay with [^3H]MSX-2 on A2A-Adenosine Receptors:
• 25 μl of DMSO, NECA (800 μmol) or test substance dilutions • 775 μl of TRIS buffer (for production, see above) • 100 μl of [^3H]MSX-2 (final concentration 1 nmol; KD value 8 nmol) • 100 μl of rat-striatum-membrane preparation or preparation of CHO cells, which express the human A2A receptor, incubated with 0.12 IE adenosine-deaminase (protein concentration: 25-75 μg/ml) • 1000 μl of final volume
The assay is performed according to the instructions of the receptor-binding assay with [^3H]CCPA with consideration of the amounts and solutions that are listed above. The incubation time is 30 minutes at 23° C. in an oscillating water bath. The glass fiber filter is introduced 30 minutes before use in 0.5% PEI solution.
as §3

Sequence of A2A adenosine receptor (P30543 whole entry): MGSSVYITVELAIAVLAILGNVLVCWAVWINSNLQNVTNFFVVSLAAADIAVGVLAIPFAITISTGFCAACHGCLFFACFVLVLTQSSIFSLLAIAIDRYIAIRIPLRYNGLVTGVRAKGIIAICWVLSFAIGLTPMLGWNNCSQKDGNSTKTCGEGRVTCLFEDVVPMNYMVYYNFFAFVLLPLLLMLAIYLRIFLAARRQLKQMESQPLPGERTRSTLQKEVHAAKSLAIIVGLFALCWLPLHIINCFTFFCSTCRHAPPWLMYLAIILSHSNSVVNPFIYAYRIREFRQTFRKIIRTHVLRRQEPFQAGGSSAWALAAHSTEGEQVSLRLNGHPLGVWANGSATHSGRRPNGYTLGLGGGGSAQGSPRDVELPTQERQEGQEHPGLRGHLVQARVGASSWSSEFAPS

With “4-(chloropyrazolyl)-1-(3-phenylpropyl)-[1,2,4-]triazolo[4,3-a]quinoxaline [Y = C—CH2—CH2—CH2-Ph, R5 = H, R6 = Cl]”, in assay [1], the “A2B % inhib. @ 1 μmol” value is listed as “(18%)” and the pKi is < 6.00. For the same compound, in assay [2], the “A2A % inhib. @ 10 μmol” value is listed as “(6%)” and the pKi is < 5.00.

On to `COc1ccc2c(c1)nc(-c1cc(Cl)n[nH]1)c1nnc(Cc3cccs3)n12` [4-[3(5)-Chloro-1H-pyrazol-5(3)-yl]-7-methoxy-1-(2-thienylmethyl)-[1,2,4]triazolo[4,3-a]-quinoxaline], for which the “A2B % inhib. @ 1 μmol” value in assay [1] is on record as “(0%)”. For the same compound, the pKi in assay [1] is < 6.00; in assay [2] it was 5.30.

Turning to `Clc1cc(-c2nc3ccccc3n3c(-c4ccoc4)nnc23)n[nH]1` [Y = C-(3-Furyl), R5 = H, R6 = Cl], in assay [1], the “A2B % inhib. @ 1 μmol” value was “(25%)” and the pKi is < 6.00. The pKi in assay [2] is 5.90.

Consider `Cn1nc(-c2nc3ccccc3n3c(Cc4cccs4)nnc23)cc1Cl` [Y = C—CH2-(2-Thienyl), R5 = CH3, R6 = Cl, 4-(5-Chloro-1H-1-methyl-pyrazol-3-yl)-1-(2-thienylmethyl)-[1,2,4]triazolo[4,3-a]-quinoxaline], for which, in assay [1], the “A2B % inhib. @ 1 μmol” value was “(22%)” and the pKi is < 6.00. Besides, in assay [2], the pKi is 5.06.

Turning to `COc1ccc2c(c1)nc(-c1cc(Cl)[nH]n1)c1nncn12` [Y = C—H, R3 = OCH3, R5 = H, R6 = Cl, 4-[3(5)-Chloro-1H-pyrazol-5(3)-yl]-7-methoxy-[1,2,4]triazolo[4,3-a]-quinoxaline], in assay [1], the “A2B % inhib. @ 1 μmol” value was “(8%)” and the pKi is < 6.00. Also, in assay [2], the “A2A % inhib. @ 10 μmol” value is reported as “(1%)” and the pKi was < 5.00.

Regarding `Clc1cc(-c2nc3ccccc3n3cnnc23)[nH]n1` [Y = C—H, R5 = H, R6 = Cl], in assay [1], the “A2B % inhib. @ 1 μmol” value was “(0%)” and the pKi was < 6.00. In addition, in assay [2], the “A2A % inhib. @ 10 μmol” value was “(21%)” and the pKi is < 5.00.

On to `Clc1cc(-c2nc3ccccc3n3nnnc23)n[nH]1` [Y = N, R5 = H, R6 = Cl, 4-[3(5)-Chloro-1H-pyrazol-5(3)-yl]tetrazolo[1,5-a]quinoxaline], for which, in assay [1], the “A2B % inhib. @ 1 μmol” value was “(13%)” and the pKi is < 6.00. In addition, the pKi in assay [2] was 5.21.
